Laboratory results reported in patent publication US20230414543A1, “METHOD OF FEEDING A GESTATING OR LACTATING ANIMAL” (NUTRECO IP ASSETS B.V., priority 2021, published 2023).
Like-named read-outs stand apart in the source and are kept apart here.

How the values were obtained:
colostrum of sows = test system: colostrum of sows
Excerpt: (§1) From day 80 of gestation up to parturition (day 115 of gestation), and subsequently through the whole period of lactation from parturition until weaning (25 days after parturition), sows of various parities were fed a top dress of 100 g/day on top of their normal diet. […] The placebo top dress was formulated from barley, wheat, corn, wheat bran, molasses, vegetable oil, and sugar. […] The ingredient (40%) was embedded in a matrix of hydrogenated fat (50%) and calcium carbonate (10%).
Colostrum samples were collected just after the first piglet was born and were analyzed for total solids, protein, and lactose, using Brix refractometry. Brix refractometry is a method to measure the concentration of solutes in a solution, based on the refraction of light, and is widely used to analyze milk samples in the dairy industry (for example: Lokke M M, Engelbrecht R, Wiking L. Covariance structures of fat and protein influence the estimation of IgG in bovine colostrum. Journal of Dairy Research (2016), 83: 58-66). […] Total solids is the sum of protein, fat, and lactose.
The total output of nutrients (protein, lactose, or total solids) per sow was calculated by multiplying the volume of colostrum per sow (Table 2) with the concentration (Table 3) of each nutrient.

[1] = test system: gestating or lactating sows and their litters
Excerpt: as §1
(§2) During gestation, sows were fed the normal diet at approximately 3 kg/day. In lactation, all sows were fed the normal diet at an increasing level following a set feeding scheme, starting from 3 kg after parturition, and increasing by 0.5 kg each day to the maximum intake capacity of each sow. The allowance was capped at a maximum of 9 kg/day.
At parturition, piglets were weighed immediately as they were born, and again at 24 h after birth, to estimate colostrum intake based on the algorithm developed by Theil et al. (Mechanistic model to predict colostrum intake based on deuterium oxide dilution technique data and impact of gestation and prefarrowing diets on piglet intake and sow yield of colostrum. J. Anim. Sci. 2014, 92:5507-5519). One day after parturition, when 24-h weights had been recorded, litter size was standardized by cross-fostering, to 14 or 15 piglets per litter. […] As a measure of milk production, the weight gain of the litter was measured at 7 days after parturition, and again at 24 days of lactation, just before piglets were weaned. […] When analyzing the data, litter weight gain was corrected for litter size.

[2] = test system: gestating or lactating sows and their litters; remark: listed apart in the source
Excerpt: From day 109 of gestation up to parturition (day 115 of gestation), and subsequently through the whole period of lactation from parturition until weaning (25 days after parturition), sows of various parities were fed a top dress of 100 g/day on top of their normal diet. […] The placebo top dress was formulated from barley, wheat, corn, wheat bran, molasses, vegetable oil, and sugar.
as §2
At parturition, piglets were weighed immediately as they were born. One day after parturition, litter size was standardized by cross-fostering, to 14 or 15 piglets per litter. Piglets were only cross-fostered to sows within the same treatment. As a measure of milk production, the weight gain of the litter was measured at 7 days after parturition, and again at 21 days of lactation, just before piglets were weaned (24 days of lactation). […] When analyzing the data, litter weight gain was corrected for litter size.

[3] = Brix refractometry, sample just after first piglet was born
[4] = volume of colostrum × concentration
[5] = corrected for litter size, 4 g/day, day 80 of gestation until weaning
[6] = piglets, 4 g/day, day 80 of gestation until weaning

## calcium gluconate
Colostrum of sows; [3]
  Concentration of solutes in colostrum: Lactose: 2.4%
  Concentration of solutes in colostrum: Protein: 17.5%
Colostrum of sows; colostrum
  Higher output of total solids, total protein and lactose compared to placebo: 6-10%
Colostrum of sows; total of fat, protein and lactose, Brix refractometry, sample just after first piglet was born
  Concentration of solutes in colostrum: Total solids: 25.0%
Colostrum of sows; [4]
  Total output of nutrients per sow: Total lactose per sow: 136 g
  Total output of nutrients per sow: Total protein per sow: 1008 g
  Total output of nutrients per sow: Total solids per sow: 1437 g
[1]; [5]
  Litter weight gain d1-d7, kg per litter: 16.9 kg per litter
  Litter weight gain d1-d24, kg per litter: 70.0 kg per litter
[1]; corrected for litter size, estimated from piglet weights at birth and 24 h (Theil et al.), 4 g/day calcium gluconate in fat matrix, top dress from day 80 of gestation until weaning
  Total colostrum intake per litter: 5565 g
[1]; first seven days of lactation
  Increase of litter weight gain compared to placebo: 7.6%
[1]; piglets per litter
  Litter size at weaning, difference compared to placebo: 0.3
[1]; piglets per litter, 4 g/day, day 80 of gestation until weaning
  Numbers weaned: 13.2
[1]; [6]
  Neonatal mortality up to day 7: 8.4%
  Pre-wean mortality: 9.6%
[1]; result in words
  Neonatal survival compared to placebo: greater
  Survival throughout the whole lactation period compared to placebo: greater
[1]; whole lactation period
  Increase of litter weight gain compared to placebo: 5%
[2]; 4 g/day, day 109 of gestation until weaning
  Litter weight gain day 1-day 21: 67.1 kg
[2]; piglets per litter
  Litter size at weaning, difference compared to placebo: 0.4
[2]; result in words
  Survival of piglets throughout the whole lactation period compared to placebo: greater
[2]; when correcting for the number of piglets weaned
  Litter gain, difference compared to placebo: 2.2 kg
